Source: patent US20040072750A1, “Compounds and methods for the modulation of CD154” (priority 2001, published 2004)
“Also recorded” adds a separate entry of the source. Bridge positions count the residues as written; N and C are the ends. Square brackets hold non-standard residues; d marks the D form. Peptide text beside a SMILES is read from it. hArg = N=C(N)NCCCC[C@H](N)C(=O)O; Mpa = O=C(O)CCS

B1: rsCD154: bacterially expressed recombinant human soluble CD154 (108 a.a-261 a.a.), 18-kDa protein (protein)
chain: ENSFEMQKGDQNPQIAAHVISEASSKTTSVLQWAEKGYYTMSNNLVTLENGKQLTVKRQGLYYIYAQVTFCSNREASSQAPFIASLCLKSPGRFERILLRAANTHSSAKPCGQQSIHLGGVFELQPGASVFVNVTDPSQVSHGTGFTSFGLLKL

Key:
Type in all cases: cell-based, human
platelets [1] = experiment: Release of sCD154 from stimulated platelets in platelet-rich plasma (ELISA)
Description: Platelet-rich plasma (PRP) was prepared from human donors by obtaining blood through a 19-gauge butterfly into PPACK anticoagulant (8.6 ml of 2.1 mM PPACK, Calbiochem, La Jolla, Calif.: final concentration 0.3 mM). Blood was aliquoted into 15 ml polypropylene tubes and centrifuged at 900 rpm for 20 minutes (160×g). The platelet rich plasma (PRP) was carefully removed and pooled in a new tube. Platelet counts were taken and recorded. Aliquots of PRP at 37° C. were then added to 1.5 ml microcentrifuge tubes containing various amounts of eptifibatide. To initiate aggregation, 20 μM ADP 4 μg/mL collagen or 5 μM TRAP6 was added and samples were rocked on a Nutator for 30 minutes at 37° C. The tubes were put on ice and immediately centrifuged at 15,000×g for 10 minutes at 4° C.
The platelet-poor plasma (PPP) supernatant was removed to new tubes and the levels of sCD154 in these samples were measured by ELISA. There was a time-dependent increase in sCD154 release when platelets were aggregated with either ADP or TRAP6.
In other experiments, various concentrations of eptifibatide, abciximab or tirofiban were added to PRP before the addition of TRAP. In the eptifibatide experiments, the release of βTG from platelet a granules was determined from PPP samples by ELISA. Inhibition of aggregation by GP IIb-IIIa antagonists was determined in PPACK-anticoagulated PRP by light-transmission aggregometry (Chrono-Log) as described in Phillips et al. (1995) J Exp. Med 182:33-40. To assess the effect of aspirin use on the release of sCD154 from platelets, PRP was obtained from 7 donors, incubated with a single concentration of GP IIb-IIIa inhibitor, and stimulated with 20 μmol/L ADP, 5 μmol/L TRAP or 4 μg/mL collagen for 30 minutes while rocking at 37° C. Resultant PPP was measured for sCD154. The same donors then took 325 mg of aspirin for 7 days. PRP was again collected and subjected to the same conditions, and the release of sCD154 was determined. A control reading (no addition of inhibitor) was taken with the agonist 0.5 mmol/L arachidonic acid in citrated PRP to ensure that the aspirin had been taken.

platelets in whole blood = experiment: Perfusion chamber: thrombus formation of whole blood on protein-coated surface under shear
Description: The effect of CD154 on the aggregation of platelets under conditions of high shear stress were evaluated. Recombinant CD154 (rCD154 or rCD40L) was compared to fibrinogen (Fg) in its ability to form thrombi as well as in combination with Fg. Controls also included CD154 in which the KGD eptifibatide-recognition sequence was mutated to KGE (CD154(KGE) or CD40L(KGE)). Briefly, a silicone gasket with a flow path height of 127 μm was placed between a flat perfusion chamber (Glycotech, Rockville, Md.) and a protein-coated petri dish as described (Andre, P. et al., Nature Medicine, 8:247-252 (2002)). Petri dishes were coated with rCD40L, Fibrinogen (Fg), rCD40L+Fg, mutated CD40L (CD40L(KGE)), CD40L(KGE)+Fg. In one experiment, the glycoprotein IIb/IIIa antagonist eptifibatide (2 μM) was incubated with whole blood before perfusion over the rCD40L-coated surface. When Fg was coated with either rCD40L or CD40L(KGE), each molecule was deposited at 25 μg/cm^2. Coating of the proteins was performed using the spray method in which 25 μl of a 1 mg/ml protein solution is coated onto the plastic with a retouching air brush resulting in a concentration of 25 μg/cm^2 (Houdijk, WP et al., J. Clin. Invest., 75:531-540 (1985)). Human peripheral blood was collected on PPACK (40 μmol/L final concentration) and perfused for 4 minutes over the protein-coated surface. Shear rates of 1500-1600/s, 500-600/s and 100-200/s, were generated with flow rates of ˜0.6, 0.25 and 0.075 ml/min, respectively. Measurements of thrombotic deposits were performed using the Simple PCI software image analysis program (Technical Instrument, Burlingame, Calif.).

platelets [2] = experiment: Platelet surface expression of CD154 and release of thrombospondin
platelets [3] = experiment: Release of sCD154 from stimulated platelets in platelet-rich plasma (ELISA); details: unstirred, FIG. 12B
washed platelets = experiment: Fibrinogen binding to washed platelets and microparticle generation (flow cytometry)
Description: Venous blood was collected from normal donors into ACD buffer (85 mM Sodium Citrate, […] and 71 mM Citric acid) containing 0.05 μg/ml prostaglandin 12(PGI2). Blood was later centrifuged at 160×g for 20 minutes to collect platelet rich plasma (PRP). PRP was centrifuged at 1100×g for 10 minutes to sediment platelets. Platelets were washed twice with CGS buffer (13 mM trisodium citrate, 120 mM sodium chloride and 30 mM dextrose pH 7.0). The first wash had 0.03 μg/ml PGI2. Washed platelets were finally suspended in Tyrodes-Hepes buffer (12 mM sodium bi-carbonate, 138 mM sodium chloride, 5.5 mM glucose, 2.9 mM potassium chloride, 10 mM Hepes, 1 mM calcium chloride and 1 mM magnesium chloride, pH 7.4).
Washed platelets (1×10^7/ml) were incubated for 60 minutes at 37° C. with 2 μM soluble CD154 (sCD154) or mutant sCD154 (D117E mutation in the KGD sequence) in the presence or absence of eptifibatide or anti-CD40 antibody. All incubations had 100 nM Alexa-Fibrinogen (Molecular probes, Eugene, Oreg.). Samples were diluted 10 fold with stain buffer (BD Pharmingen, Los Angeles, Calif.) after incubation and analyzed by flow cytometry (FACSort, BD, San Jose, Calif.).

Molecule | Inhibition of sCD154 Release at >90% Platelet Aggregation Inhibition, % (platelets [1]; TRAP-stimulated platelets, release without GP IIb-IIIa inhibitor set at 100%, average and SD) | release of sCD154 from platelets activated with ADP or TRAP (platelets [1]; inhibitor added prior to agonist, PPACK plasma) | Potentiation of sCD154 Release, % (platelets [1]; maximal potentiation, TRAP-stimulated platelets, release without inhibitor set at 100%, average and SD) | Binding of platelets to the rCD40L (platelets in whole blood; eptifibatide 2 μM incubated with whole blood) | thrombin- or TRAP-induced surface expression of CD154 (platelets [2]) | TRAP-induced release of thrombospondin (platelets [2]; data not shown) | sCD154 shedding from TRAP-activated platelets without aggregation (platelets [3]) | effect on sCD154-induced fibrinogen binding and microparticle generation (washed platelets; 2 μM sCD154, eptifibatide 2.5 μM) | aggregation process (mean thrombus area) on coated surface versus Fg (platelets in whole blood; shear rate of 1500-1600/s, 25 μg/cm^2 coating) | fibrinogen binding to platelets and generation of microparticles (washed platelets; 2 μM protein, 60 minutes at 37° C., FIG. 10)
N=C(N)NCCCC[C@@H]1NC(=O)CCSSC[C@@H](C(N)=O)NC(=O)[C@@H]2CCCN2C(=O)[C@H](Cc2c[nH]c3ccccc23)NC(=O)[C@H](CC(=O)O)NC(=O)CNC1=O [eptifibatide] ([Mpa][hArg]GDWPC-NH2; disulfide 1-7) | 85 ± 6.3% | blocked in a dose dependent manner; also recorded: inhibited | 26 ± 10% | inhibited | did not affect; also recorded: unaffected | did not affect; also recorded: without affecting | inhibited | inhibited |  | 
B1 |  |  |  |  |  |  |  |  | significantly enhances | induced
